Assay results as given in patent publication US20120129730A1, “GENERATION OF COMPOUND LIBRARIES UTILIZING MOLECULAR IMPRINTS INCLUDING A DOUBLE OR ANTI-IDIOTYPIC APPROACH” (KLAUS MOSBACH, priority 2001, published 2012).

Target: T1, tissue kallikrein (UniProt P00752)
T1 sequence (P00752 1-246): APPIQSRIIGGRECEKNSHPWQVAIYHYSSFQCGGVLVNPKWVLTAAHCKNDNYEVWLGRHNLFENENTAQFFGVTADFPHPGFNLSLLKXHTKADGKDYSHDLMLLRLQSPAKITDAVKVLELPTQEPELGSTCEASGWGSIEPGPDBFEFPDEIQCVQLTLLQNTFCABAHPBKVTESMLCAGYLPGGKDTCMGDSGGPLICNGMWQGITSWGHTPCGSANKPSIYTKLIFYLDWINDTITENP
Experiment: Determination of inhibition constants (Ki) for tissue kallikrein
Format: biochemical
Settings: for Ki: literature method of Burton and Lowe, read-out: Ki, inhibition constant for tissue kallikrein
Description: Determination of Inhibition Constants (Ki) for Tissue Kallikrein
Inhibition constants of compounds 1, 2 and 3 for tissue kallikrein are determined according to the literature method described by Burton and Lowe. ^7 The results are listed in Table 4.

SMILES | Ki | inhibition efficacy compared with the original template (1) (tissue kallikrein inhibition, comparison in words)
N=C(N)c1ccc(Nc2nc(Cl)nc(Cl)n2)cc1 [2-(4-amidinophenylamino)-4,6-dichloro-s-triazine, reference compound] | > 100 µM | 
N=C(N)c1ccc(Nc2nc(Cl)nc(NCc3ccccc3)n2)cc1 [Compound 3] | 5.2 µM | approximately the same inhibition efficacy as that of the original template (1)
